Measurements: PubChem BioAssay (NCI)
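Following 48 hours of exposure in 96-well plates, responses at five concentrations were used to interpolate endpoints linearly. TGI denotes the concentration required for complete inhibition of growth.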

Legend:
Assay in all cases: NCI-60 cell line screen, 48 h
786-0 renal = tested on: 786-0 renal
A549 NSCLC = tested on: A549 NSCLC
BT-549 breast = tested on: BT-549 breast
DU-145 prostate = tested on: DU-145 prostate
HL-60(TB) leukemia = tested on: HL-60(TB) leukemia
K-562 leukemia = tested on: K-562 leukemia
KM12 colon = tested on: KM12 colon
NCI-H23 lung = tested on: NCI-H23 lung
OVCAR-4 ovarian = tested on: OVCAR-4 ovarian
RPMI-8226 leukemia = tested on: RPMI-8226 leukemia
SF-268 CNS = tested on: SF-268 CNS
SF-295 CNS = tested on: SF-295 CNS
SNB-19 CNS = tested on: SNB-19 CNS
SR leukemia = tested on: SR leukemia
T-47D breast = tested on: T-47D breast
UACC-257 melanoma = tested on: UACC-257 melanoma
UACC-62 melanoma = tested on: UACC-62 melanoma

| Structure (SMILES) | TGI (786-0 renal) [µM] | TGI (A549 NSCLC) [µM] | TGI (BT-549 breast) [µM] | TGI (DU-145 prostate) [µM] | TGI (HL-60(TB) leukemia) [µM] | TGI (K-562 leukemia) [µM] | TGI (KM12 colon) [µM] | TGI (NCI-H23 lung) [µM] | TGI (OVCAR-4 ovarian) [µM] | TGI (RPMI-8226 leukemia) [µM] | TGI (SF-268 CNS) [µM] | TGI (SF-295 CNS) [µM] | TGI (SNB-19 CNS) [µM] | TGI (SR leukemia) [µM] | TGI (T-47D breast) [µM] | TGI (UACC-257 melanoma) [µM] | TGI (UACC-62 melanoma) [µM] |
| --- | --- | --- | --- | --- | --- | --- | --- | --- | --- | --- | --- | --- | --- | --- | --- | --- | --- |
| CC(=O)OC(C)c1cc2c(s1)C(=O)c1ccsc1C2=O (stereo unspecified) | 0.978 | 2.66 | 0.347 | 0.242 | 0.0364 | 0.473 | 0.306 | 0.196 | 1.93 | 0.486 | 0.812 | 0.233 | 0.317 | 0.365 | 1.79 | 0.156 | 0.23 |
| COc1cc(C(=O)OC2CC34CCNC35CC(OC5(OC)C2O)c2cc3c(cc24)OCO3)ccc1O (stereo unspecified) | > 100 | > 100 | > 100 | > 100 | > 100 | > 100 | > 100 | > 100 | > 100 | > 100 | > 100 | > 100 | > 100 | > 100 | > 100 | > 100 | > 100 |
| CCOC(=O)c1nc2cc(F)cc(F)c2[nH]c1=O | > 100 | > 100 | > 100 | > 100 | > 100 | > 100 | > 100 | > 100 | > 100 | > 100 | > 100 | > 100 | > 100 | > 100 | > 100 | > 100 | > 100 |
| C=CCN1C(=O)CS/C1=N\NC(=O)CSc1nc2ccccc2c(=O)n1CC | > 100 | > 100 | > 100 | > 100 | > 100 | > 100 | > 100 | > 100 | > 100 | > 100 | > 100 | > 100 | > 100 | > 100 | > 100 | > 100 | > 100 |
| c1ccc(COC[C@H]2C3OCC([C@H](OCc4ccccc4)[C@H]3OCc3ccccc3)N2Cc2ccccc2)cc1 (stereo partly specified) | > 100 | > 100 | > 100 | > 100 | > 53.4 | > 83 | > 100 | > 100 | > 100 | > 100 | > 100 | > 100 | > 100 | > 100 | > 100 | > 100 | > 100 |
| Cc1ccc(CN2CCN(Cc3ccc(C)o3)C(C)C2)o1 (stereo unspecified) | > 100 | > 100 | > 100 | > 100 | > 100 | > 100 | > 100 | > 100 | > 100 | > 100 | > 100 | > 100 | > 100 | > 100 | > 100 | > 100 | > 100 |
| NC(=O)NC(=O)c1cccc(NC(=O)CCl)c1 | 3.91 | > 28.1 | 9.03 | 5.42 | 1.97 | > 43.4 | 2.43 | 8.14 | 25.7 | 13.6 | 8.29 | 7.71 | > 26.1 | 3.92 | 27.7 | 13.6 | 2.63 |
| COC1C(=O)N(SC)C1c1ccccc1Cl (stereo unspecified) | 32.9 | > 100 | 54.2 | > 100 | 42.2 | 66.2 | > 100 | > 100 | 30.3 | 44.5 | > 100 | > 100 | > 100 | 42.4 | 58.5 | > 100 | > 100 |
| CCOC(=O)C1=NNC(C(=O)c2ccccc2)C1c1ccccc1 (stereo unspecified) | 6.3 | 41.2 | 4.37 | 25.9 | 2.86 | > 100 | 19.8 | 6.17 | > 38.3 | > 47.2 | 19.2 | 31.8 | 27.8 | > 100 | 29.3 | 6.74 | 8.63 |
| CC12CCC(=O)[C@@]1(C)CCCC2O (stereo partly specified) | > 100 | > 100 | > 100 | > 100 | > 100 | > 100 | > 100 | > 100 | > 100 | > 100 | > 100 | > 100 | > 100 | > 100 | > 100 | > 100 | > 100 |
| Nn1c(CCCCCCCCc2n[nH]c(=S)n2N)n[nH]c1=S | > 100 | > 100 | > 100 | > 100 | > 100 | > 100 | > 100 | > 100 | > 100 | > 100 | > 100 | > 100 | > 100 | > 100 | > 100 | > 100 | > 100 |
| Cc1nn(C(=O)c2ccc(Cl)cc2)c2c1C(c1ccc(Cl)cc1)SC(N)=N2 (stereo unspecified) | > 10 | > 10 | > 10 | > 10 | > 10 | > 10 | > 10 | > 10 | > 10 | > 10 | > 10 | > 10 | > 10 | > 10 | > 10 | > 10 | > 10 |
| CC(C)CC1NC(=O)CCC(NC(=O)C(Cc2ccc(O)cc2)NC(=O)OCc2ccccc2)C(=O)NC(Cc2ccccc2)C(=O)NC(Cc2ccccc2)NC1=O (stereo unspecified) | > 100 | > 100 | > 100 | > 100 | > 100 | > 100 | > 100 | > 100 | > 100 | > 100 | > 100 | > 100 | > 100 | > 100 | > 100 | > 100 | > 100 |
